In assay [1] the target is T1, BRD4 (BDII_E352-M457) (Homo sapiens, UniProt O60885).
T1 construct: protocol; made in house
Nature of the assay: TR-FRET bromodomain binding assay, second bromodomain of BRD4. Conditions: 30 nM probe. In outline:
(§1)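 Ki values derive from IC50s using probe Kd and concentration, with IC50s fitted to normalized TR-FRET ratios (Ex 340/Em 495, 520). Compounds competed against an Alexa647-labelled BET-inhibitor (100 nM BDI, 30 nM BDII) for 8 nM His-tagged bromodomain bound by Eu-anti-His antibody, 1 h, room temperature, pH 6.0.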
On the technique in general: TR-FRET usually uses a lanthanide donor and a delayed reading to cut background.

The target in assay [2] is T2, BRD4 (BDI_K57-E168) (Homo sapiens, UniProt O60885).
T2 construct: BD1: amino acids K57-E168; made in house
Nature of the assay: TR-FRET bromodomain binding assay, first bromodomain of BRD4. To be noted: 100 nM probe. A digest of the protocol: as §1

Assay [3] relates to breast cancer cell line MX-1. Nature of the assay: MX-1 cell line proliferation assay. Format: cell-based. To be noted: MX-1 cells, 3-day proliferation assay, Cell Titer Glo; read-out: Cellular proliferation: EC50. Here is the method: MX-1 Cell Line Proliferation Assay
The impact of compounds of the Examples on cancer cell proliferation was determined using the breast cancer cell line MX-1 (ATCC) in a 3-day proliferation assay and the data are reported in Table 1. MX-1 cells were maintained in RPMI 1640 medium (Sigma) supplemented with 10% FBS at 37 C.° and an atmosphere of 5% CO2. For compound testing, MX-1 cells were plated in 96-well black bottom plates at a density of 5000 cells/well in 90 μL of culture media and incubated at 37° overnight to allow cell adhesion and spreading. Compound dilution series were prepared in DMSO via a 3-fold serial dilution from 3 mM to 0.1 μM. The DMSO dilution series were then diluted 1:100 in phosphate buffered saline, and 10 μL of the resulted solution were added to the appropriate wells of the MX-1 cell plate. The final compound concentrations in the wells were 3, 1, 0.3, 0.1, 0.03, 0.01, 0.003, 0.001, 0.0003, and 0.0001 μM or 1, 0.3, 0.1, 0.03, 0.01, 0.003, 0.001, 0.0003, 0.0001, and 0.00003 μM.
Luminescence readings from the Cell Titer Glo assay were normalized to the DMSO treated cells and analyzed using the GraphPad Prism software with sigmoidal curve fitting to obtain EC50s. The minimum significant ratio (MSR) was determined to evaluate assay reproducibility (Eastwood et al., (2006) J Biomol Screen, 11: 253-261). The overall MSR was determined to be 2.1 and a moving MSR (last six run MSR overtime) has been <2.
In general terms: Cellular ATP, detected with luciferase, serves as a proxy for viable cell number.

[4] abbreviates: TR-FRET assay protocol G (compound 0.92 μM-15 pM).
[5] abbreviates: TR-FRET assay protocol E (compound 9.19 μM-150 pM).

Structures are written as SMILES. Some results are limits rather than exact numbers.

For the compound `Cn1cc2c3c(c[nH]c3c1=O)C(c1cccc(-c3ccccn3)c1)N(c1ccc(F)cc1F)c1ccc(CS(C)(=O)=O)cc1-2` (racemic) [Example 236, 4-(2,4-difluorophenyl)-10-methyl-7-((methylsulfonyl)methyl)-3-(3-(pyridin-2-yl)phenyl)-3,4-dihydro-1H-1,4,10-triazadibenzo[cd,f]azulen-11(10H)-one], the Ki turned out to be 30 nM in assay [1] (setting [4]) and 85.9 nM in assay [2] (setting [4]). Also, the EC50 in assay [3] was more than 1000 nM.

As to `Cn1cc2c3c(c[nH]c3c1=O)C(CCCOc1ccccc1)N(c1ccc(F)cc1F)c1ccc(CS(C)(=O)=O)cc1-2` (single isomer, unassigned) [Example 144], the inhibition constant Ki is 18.8 nM in assay [1] (setting [4]) and more than 238 nM in assay [2] (setting [4]). Moreover, the EC50 in assay [3] amounted to 318 nM.

Take `Cn1cc2c3c(c[nH]c3c1=O)[C@@H](c1ccccc1)N(c1ccc(F)cc1F)c1ccc(CS(C)(=O)=O)cc1-2` (single isomer, unassigned) [Example 215]: the inhibition constant (Ki) came out at 5.87 nM in assay [1] (setting [4]) and 65.7 nM in assay [2] (setting [4]). Besides, the EC50 in assay [3] is 454 nM.

Take `Cn1cc2c3c(c[nH]c3c1=O)C(Cn1ccccc1=O)N(c1ccc(F)cc1F)c1ccc(CS(C)(=O)=O)cc1-2` (single isomer, unassigned) [Example 252]: the results for the inhibition constant Ki in assay [1] (setting [4]) and in assay [2] (setting [4]) were 2.24 nM and 16.1 nM, respectively. In assay [3], the EC50 came out at 108 nM.

As for `CCS(=O)(=O)c1ccc2c(c1)-c1cn(C)c(=O)c3[nH]cc(c13)CN2CC1CC1` [Example 2, 4-(cyclopropylmethyl)-7-(ethylsulfonyl)-10-methyl-3,4-dihydro-1H-1,4,10-triazadibenzo[cd,f]azulen-11(10H)-one], the Ki was 8.36 nM in assay [1] (setting [5]) and 24.6 nM in assay [2] (setting [5]). Further, the EC50 in assay [3] stood at 19.2 nM.

As for `CCC1c2c[nH]c3c(=O)n(C)cc(c23)-c2cc(S(=O)(=O)CC)ccc2N1CC1CC1` (stereo not drawn) [Example 3, 4-(cyclopropylmethyl)-3-ethyl-7-(ethylsulfonyl)-10-methyl-3,4-dihydro-1H-1,4,10-triazadibenzo[cd,f]azulen-11(10H)-one], the inhibitory constant (Ki) turned out to be 8.91 nM in assay [1] (setting [5]) and 46 nM in assay [2] (setting [5]). Moreover, in assay [3], the EC50 came to 48.7 nM.

For `Cn1cc2c3c(c[nH]c3c1=O)CN(CC1CC1)c1ncc(S(N)(=O)=O)cc1-2` [Example 10, 4-(cyclopropylmethyl)-10-methyl-11-oxo-3,4,10,11-tetrahydro-1H-1,4,5,10-tetraazadibenzo[cd,f]azulene-7-sulfonamide], the Ki was determined as 5.99 nM in assay [1] (setting [5]) and 6.94 nM in assay [2] (setting [5]). Further, the EC50 in assay [3] is 60.8 nM.

On to `Cc1cnc2c(c1)-c1cn(C)c(=O)c3[nH]cc(c13)CN2c1ccc(F)cc1` [Example 11, 4-(4-fluorophenyl)-7,10-dimethyl-3,4-dihydro-1H-1,4,5,10-tetraazadibenzo[cd,f]azulen-11(10H)-one], for which the Ki in assay [1] (setting [4]) came out at 2.57 nM; in assay [2] (setting [4]) it was 1.61 nM. Moreover, the EC50 in assay [3] amounted to 1.64 nM.

Turning to `Cn1cc2c3c(c[nH]c3c1=O)CN(CC1CC1)c1ccccc1-2` [Example 13, 4-(cyclopropylmethyl)-10-methyl-3,4-dihydro-1H-1,4,10-triazadibenzo[cd,f]azulen-11(10H)-one], the values for the Ki in assay [1] (setting [4]) and in assay [2] (setting [4]) were 7.68 nM and 4.84 nM, respectively. In addition, in assay [3], the EC50 is 7.26 nM.

Take `COC(=O)CCC1c2c[nH]c3c(=O)n(C)cc(c23)-c2cc(CS(C)(=O)=O)ccc2N1CC1CC1` (stereo not drawn) [Example 14, methyl 3-(4-(cyclopropylmethyl)-10-methyl-7-((methylsulfonyl)methyl)-11-oxo-3,4,10,11-tetrahydro-1H-1,4,10-triazadibenzo[cd,f]azulen-3-yl)propanoate]: the Ki was determined as 0.882 nM in assay [1] (setting [5]) and 6.9 nM in assay [2] (setting [5]). The EC50 in assay [3] came out at 14.6 nM.

Regarding `Cn1cc2c3c(c[nH]c3c1=O)C(Cc1ccccc1)Nc1ccc(CS(C)(=O)=O)cc1-2` (stereo not drawn) [Example 16, 3-benzyl-10-methyl-7-((methylsulfonyl)methyl)-3,4-dihydro-1H-1,4,10-triazadibenzo[cd,f]azulen-11(10H)-one], the Ki in assay [1] (setting [5]) amounted to 18.9 nM; in assay [2] (setting [5]), 92.6 nM. In assay [3], the EC50 was 337 nM.

Consider `Cn1cc2c3c(c[nH]c3c1=O)C(CCc1ccccc1)Nc1ccc(CS(C)(=O)=O)cc1-2` (stereo not drawn) [Example 18, 10-methyl-7-((methylsulfonyl)methyl)-3-phenethyl-3,4-dihydro-1H-1,4,10-triazadibenzo[cd,f]azulen-11(10H)-one], for which the figures for the Ki in assay [1] (setting [5]) and in assay [2] (setting [5]) were 24.1 nM and 145 nM, respectively. Further, the EC50 in assay [3] came out at 343 nM.

As for `Cn1cc2c3c(c[nH]c3c1=O)CN(c1ccc(F)cc1)c1ncc(N)cc1-2` [Example 21, 7-amino-4-(4-fluorophenyl)-10-methyl-3,4-dihydro-1H-1,4,5,10-tetraazadibenzo[cd,f]azulen-11(10H)-one], the figures for the inhibition constant Ki in assay [1] (setting [4]) and in assay [2] (setting [4]) were 3 nM and 4.43 nM, respectively. Besides, in assay [3], the EC50 came out at 1.05 nM.

In the case of `Cn1cc2c3c(c[nH]c3c1=O)CN(CC1CCN(C(=O)OC(C)(C)C)CC1)c1ccc(CS(C)(=O)=O)cc1-2` [Example 28], the values for the inhibitory constant (Ki) in assay [1] (setting [5]) and in assay [2] (setting [5]) were 1.17 nM and 1.1 nM, respectively. For the same compound, the EC50 in assay [3] was 13.7 nM.

Take `Cn1cc2c3c(c[nH]c3c1=O)CN(c1ccc(F)cc1)c1ncc(F)cc1-2` [Example 32, 7-fluoro-4-(4-fluorophenyl)-10-methyl-3,4-dihydro-1H-1,4,5,10-tetraazadibenzo[cd,f]azulen-11(10H)-one]: the inhibitory constant (Ki) in assay [1] (setting [4]) was determined as 1.14 nM; in assay [2] (setting [4]), 1.01 nM. For the same compound, the EC50 in assay [3] came to 1.38 nM.

In the case of `Cc1cnc2c(c1)-c1cn(C)c(=O)c3[nH]cc(c13)C(c1ccccc1)N2c1ccc(F)cc1` (stereo not drawn) [Example 33, 4-(4-fluorophenyl)-7,10-dimethyl-3-phenyl-3,4-dihydro-1H-1,4,5,10-tetraazadibenzo[cd,f]azulen-11(10H)-one], the Ki in assay [1] (setting [4]) is 22.8 nM; in assay [2] (setting [4]), 38.3 nM. The EC50 in assay [3] came out at 495 nM.

Turning to `Cn1cc2c3c(c[nH]c3c1=O)CN(CC1CCNC1)c1ccc(CS(C)(=O)=O)cc1-2` (stereo not drawn) [Example 36], the Ki in assay [1] (setting [4]) came to 6.25 nM; in assay [2] (setting [4]) it was 5.05 nM. In addition, the EC50 in assay [3] was more than 1000 nM.

Take `COC1CCN(C(=O)C2c3c[nH]c4c(=O)n(C)cc(c34)-c3cc(CS(C)(=O)=O)ccc3N2c2ccc(F)cc2)CC1` (stereo not drawn) [Example 40]: the Ki in assay [1] (setting [4]) came to 136 nM; in assay [2] (setting [4]), 29.4 nM. For the same compound, the EC50 in assay [3] amounted to 398 nM.

Regarding `CN1CCN(C(=O)C2c3c[nH]c4c(=O)n(C)cc(c34)-c3cc(CS(C)(=O)=O)ccc3N2c2ccc(F)cc2)CC1` (stereo not drawn) [Example 41, 4-(4-fluorophenyl)-10-methyl-3-(4-methylpiperazine-1-carbonyl)-7-((methylsulfonyl)methyl)-3,4-dihydro-1H-1,4,10-triazadibenzo[cd,f]azulen-11(10H)-one], the inhibitory constant (Ki) in assay [1] (setting [4]) worked out at 57.8 nM; in assay [2] (setting [4]) it was 49.5 nM. For the same compound, the EC50 in assay [3] is more than 1000 nM.

`Cn1cc2c3c(c[nH]c3c1=O)CN(C(=O)NC1CCCC1)c1ccc(CS(C)(=O)=O)cc1-2` [Example 44, N-cyclopentyl-10-methyl-7-((methylsulfonyl)methyl)-11-oxo-10,11-dihydro-1H-1,4,10-triazadibenzo[cd,f]azulene-4(3H)-carboxamide]: the inhibition constant (Ki) in assay [1] (setting [4]) was found to be 2.47 nM; in assay [2] (setting [4]), 2.61 nM. The EC50 in assay [3] was 48.7 nM.

Usually Ki stands for a dissociation constant, usually derived from enzyme kinetics or from competition with a known ligand. A high value points to lower affinity.

These data come from patent US10035800B2 (AbbVie Inc., priority 2013, dated 2018).
